Assays:
[1] = tested on: ANA1 cells; test: Binding of biotinylated Hsp70 / Hsp70-peptide C-biotin to ANA1 macrophage cells, fluorescence microscopy; type: cell-based, murine; conditions: 100 nM biotinylated protein
Experimental: Cell culture and fluorescence microscopy. The murine macrophage cell line ANA1 was kindly provided by H. Wagner (Munich, Germany). ANA-1 cells were cultured in VLE-RPMI 1640 (Biochrom), supplemented with 10% FCS, 2 mM L-glutamine and antibiotics. For fluorescence microscopy, ANA1 cells were either stimulated with LPS (20 μg/ml, Sigma, Germany), or kept in an LPS-free medium (mock treatment) for 7 h. After stimulation, cells were harvested and incubated with 100 nM biotinylated Hsp70, biotinylated GST, or Hsp70/peptide C-biotin complex for 30 min at 0° C. in VLE-RPMI 1640. After incubation cells were processed for staining with streptavidin-TRITC (Sigma, Germany), fixed with paraformaldehyde and analyzed by fluorescence microscopy (Axiovert 35, Zeiss) as described (Sondermann et al., 2000). […] Twenty-four h post-transfection cells were incubated with 250 nM biotinylated Hsp70, biotinylated GST or Hsp70/peptide C-biotin complex for 30 min at 0° C. in DMEM, fixed, stained with streptavidin-TRITC (Sigma, Germany), and analyzed by fluorescence microscopy as described (Sondermann et al., 2000, idem). […] Stably transfected cell lines were analyzed by immunoblotting for CD40 expression using an anti-CD40 antibody (CSA180, Stressgen). […]
Details for FIG. 1. […] After 30 min at 4° C. cells were washed, incubated with TRITC-labeled streptavidin, washed again, and processed for fluorescence microscopy. […]

[2] = molecular target: T1, endogenous CD40 (Mus musculus, UniProt P27512); test: Binding assay with His6-tagged Hsp70 and Ni-NTA-agarose, ANA1 cell lysate; parameters: species or system murine; conditions: His-tagged Hsp70, with or without ADP
T1 construct: endogenous CD40 in extracts of LPS-stimulated ANA1-cells; endogenous in cells; host or cells: ANA1 murine macrophage cell line, LPS-stimulated
T1 sequence (P27512 20-289): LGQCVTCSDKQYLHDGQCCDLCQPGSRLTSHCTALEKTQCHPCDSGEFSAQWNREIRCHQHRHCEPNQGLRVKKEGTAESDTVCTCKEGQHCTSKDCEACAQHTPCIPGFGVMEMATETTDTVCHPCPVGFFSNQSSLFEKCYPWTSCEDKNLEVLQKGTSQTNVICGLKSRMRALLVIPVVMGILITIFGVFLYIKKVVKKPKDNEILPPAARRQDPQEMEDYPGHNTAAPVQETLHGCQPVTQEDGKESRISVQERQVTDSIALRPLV
Experimental: Binding assay with His6-tagged Hsp70 and Ni-NTA-agarose. ANA1-cells were stimulated with LPS as described above and lysed in lysis buffer (150 mM Tris/HCl, ph 7,5, 1% CHAPS) for 45 min at 4° C. Cell lysate was centrifuged at 100,000 g for 15 min at 4° C. […] of the supernatant was incubated with 10 μg of His6-tagged Hsp70, preincubated with ADP and a 30-fold excess of peptide C, or mock treated, as described above for biotinylated proteins, for 30 min at 4° C. Thereafter the samples were added to 20 μl of 1% BSA-treated Ni-NTA-agarose (Quiagen) and incubated for 30 min at 4° C. Unbound protein was removed by washing the beads three times with 1 ml lysis buffer, and immobilized proteins eluted with 10 μl SDS-PAGE-sample buffer by incubation for 5 min at 95° C. Eluates were analyzed by immunoblotting using an anti-CD40 antibody (CSA-180, Stressgen).
Details for FIG. 3. […] Thereafter samples were affinity purified on glutathione-Sepharose as outlined in Experimental Procedures, subjected to SDS-PAGE and analyzed by immunoblotting with antibodies directed against Hsc70 and Hsp70 (upper lanes), and against Hsp90 (lower lanes). […] After affinity purification samples were analyzed by immunoblotting as described in A, using antibodies directed against the His6-tag. […] Protein bound to Hsp70 was analyzed by affinity purification on Ni-NTA-agarose and immunoblotting with antibodies directed against CD40.

- interaction with endogenous CD40 in extracts of LPS-stimulated ANA1-cells [2]: interacted, in an ADP-dependent manner
Substance: Hsp70: Recombinant human heat shock protein 70, expressed and purified as His-tagged protein
- binding to LPS-stimulated ANA-1 cells ([1]; LPS 20 μg/ml 7 h): significant increase in binding
- binding to unstimulated ANA-1 cells ([1]; mock treated cells, 30 min, streptavidin-TRITC): weak but clearly detectable binding
